System: MALME3 melanoma viability, CellTiter-Glo luminescence, 24 h
Experiment: MALME3 melanoma cell viability loss, dose response, orthogonal assay for MITF inhibitor project, CellTiter-Glo, cherry-picked (AID 493191)

Compound `CCOC(=O)c1cc([N+](=O)[O-])c([N+](=O)[O-])cc1NC(C)=O` has an AC50 of 29.9 µM.
For `CC1=C(CC(=O)c2ccccc2)C(=O)c2ccccc2C1=O`, the AC50 was 12.7 µM.
`COc1ccc(C)c2sc(N(CCN(C)C)C(=O)/C=C/c3cccs3)nc12` was tested, and the AC50 was 25.1 µM.
`CC[n+]1c(-c2ccccc2)c2cc(N)ccc2c2ccc(N)cc21` gave an AC50 of 23.3 µM.
Compound `O=C(Nc1ccc(N2CCCC2)c(Cl)c1)c1ccc([N+](=O)[O-])o1` has an AC50 of 11.1 µM.
Compound `OCCNc1c2ccccc2nc2c(F)c(F)c(F)c(F)c12` has an AC50 of 15.1 µM.
`O=[N+]([O-])c1ccc(S(=O)(=O)CC(CN2CCCCC2)N2CCCCC2)cc1` (centres undefined) gave an AC50 of 13.4 µM.
`O=C(CCl)Nc1cccc(Oc2ccccc2)c1` gave an AC50 of 28.7 µM.
`Cc1ccc(C(C)C)c(OCc2nn(CC(=O)c3ccc(OC(F)F)cc3)c3[n+]2CCCCC3)c1` gave an AC50 of 24.2 µM.
Compound `Cc1cc(C)c[n+](C2=C([O-])c3ccccc3C(=O)/C2=N\S(=O)(=O)c2cccs2)c1` has an AC50 of 9.5 µM.
For `COc1ccc(C(=O)/C=C/C(=O)N(CC(=O)NC2CCCCC2)Cc2ccccc2)c(O)c1`, the AC50 was 6.88 µM.
`Cc1ccc(NC(=O)c2cc(N3C(=O)C=CC3=O)ccc2N2CCOCC2)cc1Cl` showed an AC50 of 23.5 µM.
`Cc1ccc(NC(=O)c2ncn(CCCN[C@H](C)c3cccc4ccccc34)n2)cc1C` showed an AC50 of 29.2 µM.
`O=c1c(Cl)c(Cl)cnn1-c1ccccc1` showed an AC50 of 5.84 µM.
With `O=C(Nc1ccc2oc(-c3cccnc3)nc2c1)c1ccc([N+](=O)[O-])o1` the AC50 was 25.9 µM.
With `O=C(N/N=C/c1ccc([N+](=O)[O-])o1)c1ccccc1-n1cccc1` the AC50 was 32.1 µM.
Work on `COc1ccc(-c2nn(-c3ccccc3)cc2/C=N/N=C(N)N)cc1OC` yielded an AC50 of 21.9 µM.
`COc1ccccc1NC(=O)c1nc(S(=O)(=O)Cc2ccccc2)ncc1Cl` gave an AC50 of 6.97 µM.
Compound `Cc1ccc(NC(=O)CCl)cc1S(=O)(=O)N1CCCCCC1` has an AC50 of 18.1 µM.
`COc1ccc(-n2c(C)cc(C(=O)CCl)c2C)cc1` gave an AC50 of 19.3 µM.
In the case of `O=C1CN(C(=O)Cn2ncc(Cl)c(Cl)c2=O)c2ccccc2N1`, the AC50 is reported as 15.4 µM.
`Cc1ccc(-c2nc(C(=O)NCCCN(C)C)cc3c2[nH]c2ccccc23)cc1` gave an AC50 of 31.1 µM.
`COc1ccc(-c2cc(-c3ccccc3)c(C#N)c(S(C)=O)n2)cc1` (centres undefined) showed an AC50 of 23.8 µM.
With `CCCCN(C)CC(O)Cn1cc(/C=C/C(=O)c2cccs2)c2ccccc21` (centres undefined) the AC50 was 18.6 µM.
Compound `O=C(CCl)N(c1ccccc1)C1CCCCC1` has an AC50 of 20.1 µM.
`CC(C)=NOc1cc(NC(=O)CCl)cc([N+](=O)[O-])c1` gave an AC50 of 5.64 µM.
`O=C(N/N=C/c1ccc([N+](=O)[O-])s1)c1ccccc1Br` was tested, and the AC50 was 26.9 µM.
For `Cc1cccc(NC(=O)CNC(=O)Cn2ncc(Cl)c(Cl)c2=O)c1C`, the AC50 was 14.1 µM.
`Cc1ccccc1C(=O)N1CCN(c2ccc(NC(=O)c3ccc([N+](=O)[O-])o3)cc2)CC1` showed an AC50 of 9.64 µM.
Compound `COc1ccc(C(CCNC(C)c2ccccc2)c2ccc(F)cc2)cc1` (centres undefined) has an AC50 of 16.7 µM.
In the case of `CNC(=O)COC(=O)c1ccccc1C(=O)c1ccc(Cl)c([N+](=O)[O-])c1`, the AC50 is reported as 23.8 µM.
In the case of `Cc1cc(NC(=O)c2cncc(Br)c2)ccc1NC(=O)c1cc2ccccc2o1`, the AC50 is reported as 17 µM.
`CCOc1c(Br)cc(CNC2CCCCCCC2)cc1OC` showed an AC50 of 27.6 µM.
Work on `O=C1C=C(N(CCO)Cc2ccccc2)c2ccccc2C1=O` yielded an AC50 of 16 µM.
In the case of `Cc1ccc2nc(C)cc(Nc3ccc([N+](=O)[O-])cc3)c2c1`, the AC50 is reported as 31.5 µM.
`O=C1/C(=C/c2ccccc2[N+](=O)[O-])COc2ccccc21` showed an AC50 of 25.3 µM.
With `Cc1ccc(NC(=O)CN(C)C(=O)Cn2ncc(Cl)c(Cl)c2=O)cc1` the AC50 was 8.81 µM.
For `CCN(CC)S(=O)(=O)c1ccc(NC(=O)c2cccnc2Cl)c(NC(=O)c2cccnc2Cl)c1`, the AC50 was 25.6 µM.
For `COC1=C(Nc2ccc(O)cc2)C(=O)c2ccccc2C1=O`, the AC50 was 14.3 µM.
For `CCOC(=O)CSC1=NC(=O)/C(=C\c2ccc(Cl)cc2)S1`, the AC50 was 16.2 µM.
In the case of `CCN(Cc1ccccc1)c1ccc(/C=N/N=C(N)N)cc1`, the AC50 is reported as 24.4 µM.
For `CN1CCN(c2ccccc2NC(=O)c2ccc([N+](=O)[O-])o2)CC1`, the AC50 was 10 µM.
`COC1=C(c2ccccc2)C(=O)c2ccccc2C1=O` was tested, and the AC50 was 20.3 µM.
`Cc1cc(C(C)(C)C)cc(C)c1Cn1c2[n+](c3ccc(C(F)(F)F)cc31)CCCCC2` showed an AC50 of 24.6 µM.

Source: PubChem BioAssay AID493191 (Broad Institute, 2011)
